The source of these data is patent US12286618B2, “Lactic acid bacteria” (priority 2018, dated 2025).

Each structure is given as a SMILES string.

The target in the test is Streptococcus thermophilus glucokinase (GlcK) DGCC7710 variant E275K, strain DSM32587 (DGCC12534), SEQ ID NO: 22 (Streptococcus thermophilus, UniProt Q5M4Y5, E275K). To be noted: substrate glucose (0, 5, 10, 15, 20 mM); 1 mM ATP; pH 7.2; 30° C.; crude extract; mean of three independent experiments.
Chain of Streptococcus thermophilus glucokinase (GlcK) DGCC7710 variant E275K, strain DSM32587 (DGCC12534), SEQ ID NO: 22 (Q5M4Y5 entry or part of it E275K): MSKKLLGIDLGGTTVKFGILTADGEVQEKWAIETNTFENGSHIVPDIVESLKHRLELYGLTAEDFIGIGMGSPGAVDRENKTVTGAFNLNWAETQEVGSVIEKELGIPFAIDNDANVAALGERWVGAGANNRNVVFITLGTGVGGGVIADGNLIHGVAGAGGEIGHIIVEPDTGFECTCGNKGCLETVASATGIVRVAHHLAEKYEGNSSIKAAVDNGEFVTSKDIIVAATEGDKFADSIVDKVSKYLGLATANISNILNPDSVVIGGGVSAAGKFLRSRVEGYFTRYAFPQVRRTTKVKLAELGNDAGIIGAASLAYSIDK

Description: A fresh overnight culture of the Streptococcus thermophilus strain to be assayed in M17 containing 30 g/L lactose is obtained and used to inoculate at 1% (vol/vol) 10 ml of fresh M17 30 g/L lactose. Cells are harvested by centrifugation (6000 g, 10 min, 4° C.) at a 600 nm optical density (OD600) of 0.8+/−0.2, washed in 5 ml cold GLCK buffer (5 mM MgCl2, 10 mM K2HPO4/KH2PO4 [pH 7.2]), and resuspended in 500 μl cold GLCK buffer. EDTA-free protease inhibitors “cOmplete™” (Roche, supplier reference 04693132001) is added in GLCK buffer as described by the provider. […] Total protein content is determined by using the FLUKA Protein Quantification Kit-Rapid (ref 51254). The glucokinase activity in the cell extracts is determined spectrophotometrically by a glucose-6-phosphate dehydrogenase (G-6PDH, EC1.1.1.49): NADPH-coupled assay (Porter et al., 1982), essentially as described by Pool et al. (2006). […] The optical density at 340 nm is measured for 5 minutes by using a Synergy HT multi-detection microplate reader (BIO-TEK). […]
A fresh overnight culture of a Streptococcus thermophilus strain in M17 containing 30 g/L lactose was obtained and used to inoculate at 1% (vol/vol) 10 ml of fresh M17 30 g/L lactose. […] Total protein content was determined by using the FLUKA Protein Quantification Kit-Rapid (ref 51254). […]

For the compound `OC[C@H]1OC(O)[C@H](O)[C@@H](O)[C@@H]1O` (stereo partly shown) [glucose], the “Vmax Glucokinase” value is 914 U/g total protein extract.
